From US11203565B2, “Ester compound and PIN1 inhibitor, inflammatory disease therapeutic, and colon cancer therapeutic in which said ester compound is used” (Hiroshima University, priority 2016, dated 2021)

System: mice having induced inflammation of the large intestine
Assay: not given
Conditions: oral administration to mice, Non-patent Document 7; cited from earlier work
For COc1ccc(-c2cc(C(=O)N[C@H](Cc3ccc4ccccc4c3)C(=O)O)c(C)o2)cc1 [Compound C1, (R)-2-(5-(4-methoxyphenyl)-2-methylfuran-3-carboxamido)-3-(naphthalene-6-yl)propanoic acid], the “development of inflammation of the large intestine” value is given as “development of the inflammation can be suppressed”. For O=C1C=CC(=O)c2c(O)cccc21 [Juglone], the “development of inflammation of the large intestine” value is listed as “development of the inflammation can be suppressed”.

System: model animals of ulcerative colitis (3% DSS)
Assay: Therapeutic experiment using model animals of ulcerative colitis (Example 4)
Format: in vivo, C57BL6 mice
Conditions: DSS mice, 5-ASA 300 mg/kg/day, Day 7
Protocol: To C57BL6 mice of 8 weeks old, 3% DSS (dextran sulfate sodium)-containing water or water (control) was administered by allowing the mice to drink it for 7 days. For the mice to which DSS was administered, groups in which 5-ASA (compound name: 5-aminosalicylic acid; generic name: Mesalazine), which is a therapeutic agent for inflammatory bowel diseases, the compound synthesized in Example 2-7 (H-31), or the compound synthesized in Example 2-36 (H-179) was administered, and a group in which no compound was administered were provided. On Day 7 after the beginning of the administration, the body weight of each mouse was measured, and the large intestine was removed from the mouse, followed by carrying out histological study. […] In FIGS. 4(A) and (B), “normal” indicates a case where water was administered, and “DSS” indicates cases where DSS-containing water was administered. “non” indicates a case where no compound was administered, and “5-ASA”, “H-31”, and “H-179” indicate cases where the respective compounds were administered. The dose was as follows: 5-ASA, 300 mg/kg/day; H-31, 1 mg/kg/day; H-179, 1 mg/kg/day. As shown in FIG. 4(A), weight loss due to inflammation of the intestine was found in the cases where DSS was administered.
For Nc1ccc(O)c(C(=O)O)c1 [Compound 5-ASA, 5-aminosalicylic acid, reference compound], the “tissue damage in the large intestine (stained section)” value (from here on “tissue damage in the large intestine”) was “tissue damage in the large intestine due to DSS was found”.

Same assay, conditions: DSS mice, compound 1 mg/kg/day, Day 7
In the case of O=C(COc1cccc2ccccc12)O[C@H](Cc1ccc2ccccc2c1)C(=O)O [Compound H-179], the “tissue damage in the large intestine” value is reported as “tissue damage in the large intestine was hardly found”.

Same assay, conditions: DSS mice, compound 1 mg/kg/day, Day 7, vs no compound
In the case of O=C(COc1cccc2ccccc12)O[C@H](Cc1ccc2ccccc2c1)C(=O)O [Compound H-179], the “weight loss (body weight as ratio to body weight before administration)” value is reported as “the weight loss was significantly smaller”.

System: Pin1 protein
Assay: Confirmation of Pin1 expression level in the intestinal tract of DSS mice (Example 7)
Format: in vivo
Conditions: after 7 days of administration
Protocol: The expression level of Pin1 in the intestinal tract was measured for each mouse subjected to the therapeutic experiment in Example 5.
The present results also support that the compound synthesized in Example 2-7 (H-31) prevents development of ulcerative colitis.
With Nc1ccc(O)c(C(=O)O)c1 [Compound 5-ASA, 5-aminosalicylic acid, reference compound] the “increase in the Pin1 protein level in the intestinal tract” value was “could not be ameliorated”.

System: model animals of ulcerative colitis (3% DSS)
Assay: Therapeutic experiment using model animals of ulcerative colitis 2 (Example 6)
Format: in vivo, C57BL6 mice
Conditions: DSS mice, 5-ASA 300 mg/kg/day or 150 mg/kg/day
Protocol: To C57BL6 mice of 8 weeks old, 3% DSS (dextran sulfate sodium)-containing water or water (control) was administered by allowing the mice to drink it for 7 days. […] On Day 7 after the beginning of the administration, the body weight of each mouse was measured, and the large intestine was removed from the mouse, followed by carrying out histological study. […] In addition, an experiment for measuring the colon length was carried out.
With Nc1ccc(O)c(C(=O)O)c1 [Compound 5-ASA, 5-aminosalicylic acid, reference compound] the “tissue damage in the large intestine” value was “tissue damage in the large intestine due to DSS was found” and the weight loss was “No significant effect was found”.

Target: T1, Pin1 (Homo sapiens, UniProt Q13526)
T1 construct: endogenous in cells; host or cells: 293T cells
T1 sequence (Q13526 whole entry): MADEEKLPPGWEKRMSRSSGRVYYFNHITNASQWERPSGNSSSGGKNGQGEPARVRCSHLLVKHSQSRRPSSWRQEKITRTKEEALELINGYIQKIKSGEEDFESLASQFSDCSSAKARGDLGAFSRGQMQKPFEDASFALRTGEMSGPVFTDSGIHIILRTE
Assay: Evaluation of inhibitory activity on function of Pin1: cell assay using degree of AMPK phosphorylation as index
Format: cell-based
Design: key to Pin1 inhibitory activity: −: Promotion of AMPK phosphorylation was not (or hardly) found.; +: Phosphorylation of AMPK was promoted, but the promotion was weaker than that by C1.; ++: Phosphorylation of AMPK was promoted to the same degree as in the case of C1.; +++: Phosphorylation of AMPK was promoted more strongly than in the case of C1
Conditions: 293T cells, compound 100 μM, 10 mM 2-DG, pAMPK immunoblot rated by comparison with C1
Protocol: In order to evaluate the inhibitory activities of the compounds of the present invention synthesized in Example 2 on the function of Pin1, an assay using cells was carried out according to a method previously developed by the present inventors (Yusuke Nakatsu et al., Journal of Biological Chemistry, 2015, Vol. 290, No. 40, pp. 24255-24266), using as an index the degree of phosphorylation of AMPK (AMP-activated protein kinase), whose phosphorylation is known to be suppressed by Pin1.
Briefly, 293T cells were plated on a 24-well plate coated with collagen. Forty-eight hours later, each compound (100 μM) synthesized in the Example was added to the plate, and the plate was left to stand in an incubator for 30 minutes. Thereafter, 10 mM 2-DG was added to the plate, and, 1 hour later, each sample was collected using a buffer containing mercaptoethanol and SDS.
According to conventional methods, SDS-PAGE and blotting were carried out, and then blocking was carried out with 3% BSA for 1 hour. Thereafter, reaction was carried out at normal temperature for 1 hour with each of a pAMPK antibody (Cell signaling 1:2000, Can get signal solution 1: diluted by Toyobo) as a primary antibody, and an HRP-linked anti rabbit IgG (GE healthcare 1:4000, Can get signal solution 2: diluted by Toyobo) as a secondary antibody, to perform detection.
As a compound to be compared, C1: (R)-2-(5-(4-methoxyphenyl)-2-methylfuran-3-carboxamido)-3-(naphthalene-6-yl)propanoic acid, which is an already reported Pin1 inhibitor, was used.
In FIG. 3, “-” indicates the degree of phosphorylation of AMPK in a case where no Pin1 inhibitor was added, and “C1”, “H-30”, “H-31”, “H-32”, and “H-33” indicate the degrees of phosphorylation of AMPK in cases where the respective Pin1 inhibitors were added. […] The inhibitory activity on the function of Pin1 was rated as follows based on comparison with the degree of inhibition by C1.
In the case of O=C(O[C@H](Cc1ccc2ccccc2c1)C(=O)OCc1ccccc1)c1ccc2ccccc2c1 [Compound H-21], the Pin1 inhibitory activity is reported as “−”. For O=C(O[C@H](Cc1ccc2ccccc2c1)C(=O)O)c1ccc(C(O)c2ccccc2)cc1 (stereo partly shown) [Compound H-23], the Pin1 inhibitory activity was “++”. With O=C(O[C@H](Cc1ccc2ccccc2c1)C(=O)O)c1ccc2ccccc2c1 [Compound H-30] the Pin1 inhibitory activity was “++”. For COc1ccc(-c2cc(C(=O)O[C@H](Cc3ccc4ccccc4c3)C(=O)O)c(C)o2)cc1 [Compound H-32], the Pin1 inhibitory activity was “+”. For O=C(O[C@H](Cc1ccc2ccccc2c1)C(=O)O)c1ccc(-c2ccccc2)cc1 [Compound H-33], the Pin1 inhibitory activity was “+”. In the case of O=C(CC1c2ccccc2-c2ccccc21)O[C@H](Cc1ccc2ccccc2c1)C(=O)O [Compound H-106], the Pin1 inhibitory activity is reported as “++”. For O=C(O[C@H](Cc1ccc2ccccc2c1)C(=O)O)c1ccc(Oc2ccccc2)cc1 [Compound H-123], the Pin1 inhibitory activity was “++”. With O=C(O[C@H](Cc1ccc2ccccc2c1)C(=O)O)c1cccc(Oc2ccccc2)c1 [Compound H-130] the Pin1 inhibitory activity was “++”. With O=C(O[C@H](Cc1ccc2ccccc2c1)C(=O)O)c1ccccc1Oc1ccccc1 [Compound H-132] the Pin1 inhibitory activity was “+”. In the case of O=C(O[C@H](Cc1ccc2ccccc2c1)C(=O)O)C(c1ccccc1)c1ccccc1 [Compound H-134], the Pin1 inhibitory activity is reported as “++”. With O=C(O[C@@H](Cc1ccc2ccccc2c1)C(=O)O)C1c2ccccc2-c2ccccc21 [Compound H-141] the Pin1 inhibitory activity was “+++”. For O=C(Cc1ccc2ccccc2c1)O[C@H](Cc1ccc2ccccc2c1)C(=O)O [Compound H-149], the Pin1 inhibitory activity was “+”. With O=C(Cc1cccc2ccccc12)O[C@H](Cc1ccc2ccccc2c1)C(=O)O [Compound H-151] the Pin1 inhibitory activity was “++”. With O=C(O)[C@@H](Cc1ccc2ccccc2c1)OC(=O)N1c2ccccc2Oc2ccccc21 [Compound H-157] the Pin1 inhibitory activity was “++”. For O=C(O)[C@@H](Cc1ccc2ccccc2c1)OC(=O)n1c2ccccc2c2ccccc21 [Compound H-175], the Pin1 inhibitory activity was “+++”. With O=C(COc1ccccc1)O[C@H](Cc1ccc2ccccc2c1)C(=O)O [Compound H-176] the Pin1 inhibitory activity was “++”. In the case of O=C(COc1ccc2ccccc2c1)O[C@H](Cc1ccc2ccccc2c1)C(=O)O [Compound H-177], the Pin1 inhibitory activity is reported as “++”. In the case of O=C(COc1cccc2ccccc12)O[C@H](Cc1ccc2ccccc2c1)C(=O)O [Compound H-179], the Pin1 inhibitory activity is reported as “+++”. In the case of O=C(Cc1c[nH]c2ccccc12)O[C@H](Cc1ccc2ccccc2c1)C(=O)O [Compound H-180], the Pin1 inhibitory activity is reported as “++”. With COc1cc(OC)cc(C(=O)O[C@H](Cc2ccc3ccccc3c2)C(=O)O)c1 [Compound H-198] the Pin1 inhibitory activity was “+”. With O=C(O[C@H](Cc1ccc2ccccc2c1)C(=O)O)c1cc(Cl)cc(Cl)c1 [Compound H-200] the Pin1 inhibitory activity was “+”. In the case of Cc1cc(C)cc(C(=O)O[C@H](Cc2ccc3ccccc3c2)C(=O)O)c1 [Compound H-210], the Pin1 inhibitory activity is reported as “+”. For CC(C)(C)OC(=O)N[C@@H](Cc1ccccc1)C(=O)O[C@H](Cc1ccc2ccccc2c1)C(=O)O [Compound H-248], the Pin1 inhibitory activity was “+”. In the case of Cc1ccc(C(=O)O[C@H](Cc2ccc3ccccc3c2)C(=O)O)cc1C [Compound H-265], the Pin1 inhibitory activity is reported as “+”. For COc1ccc(C(=O)O[C@H](Cc2ccc3ccccc3c2)C(=O)O)cc1OC [Compound H-266], the Pin1 inhibitory activity was “+”. In the case of O=C(O[C@H](Cc1ccc2ccccc2c1)C(=O)O)c1ccc(Cl)c(Cl)c1 [Compound H-269], the Pin1 inhibitory activity is reported as “+”. For O=C(O[C@H](Cc1ccc2ccccc2c1)C(=O)O)c1ccc(F)c(F)c1 [Compound H-270], the Pin1 inhibitory activity was “+”.

Same assay, conditions: cell-based experiment, 293T cells, 100 μM
For O=C(O[C@H](Cc1ccc2ccccc2c1)C(=O)OCc1ccccc1)c1ccc2ccccc2c1 [Compound H-21], the “inhibitory activity on Pin1 (stated in words)” value was “no inhibitory activity on Pin1”. For O=C(O[C@@H](Cc1ccc2ccccc2c1)C(=O)O)C1c2ccccc2-c2ccccc21 [Compound H-141], the “inhibitory activity on Pin1 (stated in words)” value was “both have inhibitory activities on Pin1”.
